Results on ten compounds are retold here after US9346764B2, “Imidazolidinedione compounds and their uses” (HINOVA PHARMACEUTICALS INC., priority 2011, dated 2016).

The structures appear in SMILES notation. Like-named read-outs stand apart in the source and are kept apart here.

Series [1] relates to human prostate cancer LNCaP cells. Briefly: Inhibition of the growth of prostate cancer cells (MTT), LNCaP. It counts as cell-based. As to the method:
(§1) The ability of compounds to inhibit the growth of prostate cancer cells was tested:
(§2) First, the human prostate cancer LNCaP (purchased from ATCC, USA) and 22RV1 (purchased from SIBS) cells were transferred to a RPMI1640 culture medium containing 10% charcoal-stripped fetal bovine serum (FBS). After cultured for three days, the cells were digested with 0.25% trypsin and counted through trypan blue staining. The cells were plated, with 100 μL cell suspension containing 5000 cells per well. 200 μL medium was added to the wells around the cell plate for avoiding edge effects.
(§3) The cell plate was placed in a cell incubator for 30 min, 10 μL of 4 nM R1881 was added into each well and homogeneously mixed. Upon the addition of R1881, the cell plate was placed in a cell incubator and incubated at 37° C., under 5% CO2 for 96 hours. Afterwards, 40 μL of MTT (prepared in PBS, concentration is 2.5 mg/mL) was added into each wells, and incubated at 37° C. for 2 hours. The supernatant was sucked off, and 100 μL of DMSO was added into each well. The plate was shaken by a vibrator for 10 min for dissolving formazan. The plate was read at 570 nm wavelength using a microplate reader in the unit of OD.

For series [2], the system named is human prostate cancer 22RV1 cells. Briefly: Inhibition of the growth of prostate cancer cells (MTT), 22RV1. The series is classed as cell-based. On the procedure:
as §1, §2, §3

In series [3] the test system is prostate specific antigen (PSA). In words: Inhibition of prostate specific antigen (PSA) in LNCaP cells induced with R1881. It counts as cell-based. Particulars: Homo sapiens, read-out: LNCaP (IC50, nM). On the procedure: (§4) The in vitro biological activity of test compounds of the present invention as androgen receptor antagonist can be tested by the methods as reported in J. Medcinal Chemistry (2010, page 2779-2796 and WO201 1/029392).
(§5) The inhibition activity of these compounds on prostate specific antigen (PSA) was determined using prostate cancer cells (LNCaP and 22RV1). Prostate cancer cells (LNCaP and 22RV1) could be purchased from ATCC, USA. The expression of PSA in cells was induced with the artificially synthesized androgen R1881 (methyltrienolone, androgen receptor activator) to increase the sensitivity of inhibition experiment.

Series [4] has the same test system. In words: Inhibition of prostate specific antigen (PSA) in 22RV1 cells induced with R1881. It counts as cell-based. Particulars: Homo sapiens, 22Rv1, read-out: 22RV1 (IC50, nM). On the procedure:
as §4, §5

Series [5] can be described thus: Pharmacokinetic evaluation in mice. The series is classed as in vivo, Kunming mice (KM mice). As to conditions: male KM mice, 10 mg/kg intragastrically; for Cmax / Tmax: Kunming (KM), mouse, plasma, po, DMSO:PEG400:H2O 1:5:14. As to the method: Compounds were dissolved in DMSO:PEG400:H2O 1:5:14. The volume of administration was 10 mL/kg. Before testing, the mice fasted for 12 h and drunk water ad libitum. Then, the mice were fed together at 2 h after administration. 0.3 mL of blood were took from 3 mice through retrobulbar venous plexus at 0.5, 1.0, 2.0, 4.0, 6.0 and 24 h after administration, placed in heparinized tubes, and centrifuged for 5 min at 11000 rpm. The plasma was separated and frozen in a refrigerator at −20° C. 100 uL of serum was transferred with a pipettor into a clean plastic centrifuge tube marked with compound's name and time point, and diluted with acetonitrile (CH3CN) and centrifuged. The concentration of drug was analyzed by LC-MS. Serum was stored at −80° C. before analysis.

Where [6] appears, read: Homo sapiens, growth inhibition, LNCaP cells, R1881 added, 96 hours, MTT, read-out: LNCaP (IC50).
The mark [7] stands for this setting: Homo sapiens, growth inhibition, 22RV1 cells, R1881 added, 96 hours, MTT, read-out: 22RV1 (IC50).
[8] abbreviates: Homo sapiens, LNCaP, 96 h, read-out: LNCaP (IC50, uM).
Setting [9] is: Homo sapiens, 22Rv1, 96 h, read-out: 22RV1 (IC50, uM).
Where [10] appears, read: growth inhibition, LNCaP cells, R1881 added, 96 hours, MTT, read-out: LNCaP (IC50).

What is called IC50 is the concentration needed to halve the response being measured. Regarding `CN(C)C(=O)c1ccc(N2C(=S)N(c3ccc(C#N)c(C(F)(F)F)c3)C(=O)C23CCC3)cc1F` [Example 2], the IC50 in series [1] (setting [6]) is 1.37 µM; in series [2] (setting [7]), 20.8 µM; in series [3] it was < 800 nM; in series [4], < 1600 nM.

As for `CN(C)C(=O)c1ccc(N2C(=S)N(c3ccc(C#N)c(C(F)(F)F)c3)C(=O)C2(C)C)cc1F` [Example 5, 4-{7-[4-cyano-3-(trifluoromethyl)phenyl]-5,5-dimethyl-4-oxo-2-thio-1-imidazolidinyl}-2-fluoro-N,N-dimethyl benzamide], the 50% inhibitory concentration (IC50) is 2.07 µM in series [1] (setting [6]), 23.4 µM in series [2] (setting [7]), < 800 nM in series [3] and < 1600 nM in series [4].

As to `[2H]C([2H])([2H])NC(=O)c1ccc(N2C(=S)N(c3ccc(C#N)c(C(F)(F)F)c3)C(=O)C23CCC3)cc1F` [Example 3], the 50% inhibitory concentration (IC50) in series [1] (setting [8]) was 0.36 µM; in series [2] (setting [9]), 15 µM; in series [3] it was < 400 nM; in series [4] it was < 1000 nM.

`CNC(=O)c1ccc(N2C(=S)N(c3ccc(C#N)c(C(F)(F)F)c3)C(=O)C2(C)C)cc1` [Example 12, 4-{7-[4-cyano-3-(trifluoromethyl)phenyl]-5,5-dimethyl-4-oxo-2-thio-1-imidazolidinyl}-2-deutero-N-trideuteromethyl benzamide]: the half-maximal inhibitory concentration (IC50) in series [1] (setting [10]) stood at 2.42 µM; in series [2] (growth inhibition, 22RV1 cells, R1881 added, 96 hours, MTT, read-out: 22RV1 (IC50)), 25.8 µM.

Regarding `CC(O)(CS(=O)(=O)c1ccc(F)cc1)C(=O)Nc1ccc(C#N)c(C(F)(F)F)c1` (centres unmarked) [bicalutamide, reference compound], the results for the IC50 in series [1] (setting [6]) and in series [2] (setting [7]) were 18.4 µM and 30.9 µM, respectively.

One may read the Cmax as the peak of the concentration-time curve. A word on the Tmax: it is the time at which the peak concentration occurs. For the compound `CNC(=O)c1ccc(N2C(=S)N(c3ccc(C#N)c(C(F)(F)F)c3)C(=O)C2(C)C)cc1F` [Example 4, 4-{7-[4-cyano-3-(trifluoromethyl)phenyl]-5,5-dimethyl-4-oxo-2-thio-1-imidazolidinyl}-2-fluoro-N-methyl-benzamide, reference compound], in series [5], the highest level (Cmax) was 8450 ng/mL and the Tmax turned out to be 6 h.

As for `[2H]c1cc(N2C(=S)N(c3ccc(C#N)c(C(F)(F)F)c3)C(=O)C2(C)C)ccc1C(=O)NC` [Example 11, 4-{7-[4-cyano-3-(trifluoromethyl)phenyl]-5,5-dimethyl-4-oxo-2-thio-1-imidazolidinyl}-2-deutero-N-methyl benzamide], the IC50 in series [1] (setting [8]) worked out at 1.75 µM; in series [2] (setting [9]), 18.9 µM.

Regarding `CNC(=O)c1ccc(N2C(=S)N(c3ccc(C#N)c(C(F)(F)F)c3)C(=O)C2(C)C)cc1F` [Example 14, 4-{7-[4-cyano-3-trifluoromethyl-2,6-dideuterophenyl]-5,5-dimethyl-4-oxo-2-thio-1-imidazolidinyl}-2-fluoro-N-trideuteromethyl benzamide], the half-maximal inhibitory concentration (IC50) in series [1] (setting [10]) was determined as 1.5 µM.

Take `[2H]C([2H])([2H])NC(=O)c1ccc(N2C(=S)N(c3ccc(C#N)c(C(F)(F)F)c3)C(=O)C2(C)C)cc1F` [Example 6, 4-{7-[4-cyano-3-(trifluoromethyl)phenyl]-5,5-dimethyl-4-oxo-2-thio-1-imidazolidinyl}-2-fluoro-N-trideuteromethylbenzamide]: in series [5], the peak level (Cmax) was 10400 ng/mL, the time of peak concentration (Tmax) was 6 h, the “AUC compared with undeuterated compound 17” value is “significantly increased” and the “Cmax increase compared with undeuterated compound 17” value is listed as “at least 20%”.

Consider `CNC(=O)c1ccc(N2C(=S)N(c3ccc(C#N)c(C(F)(F)F)c3)C(=O)C23CCC3)cc1F` [Example 1, reference compound], for which the IC50 in series [1] (setting [8]) is 4.09 µM; in series [2] (setting [9]), 26 µM; in series [3] it was < 1000 nM; in series [4] it was < 2000 nM.
